One series relates to VEGF. Description: VEGF-ELISA (Quantikine sandwich immunoassay of VEGF in cell supernatant). The class given is cell-based. Conditions: Homo sapiens, 17 h; read-out: Secondary Assay VEGF-ELISA IC50. The protocol: This assay employs the quantitative sandwich enzyme immunoassay technique. A monoclonal antibody (R&D Systems®, Abingdon, Oxon, UK) specific for VEGF was pre-coated onto a microplate. To this was added a sample containing VEGF. After washing, a second anti-VEGF antibody coupled to horseradish peroxidase was added. […] Typically, cells were plated at a concentration of 2.5×10^4 cells/well, and incubated with either 100 μM desferroxamine or at 0.1% O2 for 17 hours at 37° C. 200 μL of supernatant were removed and the VEGF quantitated using the Quantikine® ELISA kit from R&D Systems® (catalog # DVEOO) exactly according to the manufacturer's instructions. The assay is calibrated each time using recombinant human VEGF.

In series [1] the target is T1, interaction between HIF-1α and p300 (His-HIF-1α / GST-p300) (Homo sapiens, UniProt Q09472+Q16665).
T1 construct: corresponding to the C-terminal 390 amino acids into vector pET28a; A plasmid containing the N-terminal 595 amino acids of human p300; made in house; host or cells: E. coli
Put plainly: Primary assay: fluorescence-based (DELFIA) screening assay for inhibition of the HIF-1α/p300 interaction. The class given is binding. The protocol:
Candidate compounds were assessed for their ability to inhibit the interaction between HIF-1α and p300 using a high throughput fluorescence-based screening assay (DELFIA) as follows.
A plasmid expressing His-HIF-1α fusion protein was constructed by PCR, by amplifying and subcloning a fragment of the human HIF-1α cDNA (NCBI GenBank, accession number AH006957) corresponding to the C-terminal 390 amino acids into vector pET28a (Novagen®, Madison, Wis., USA). A plasmid containing the N-terminal 595 amino acids of human p300 (NCBI GenBank, accession number U01877) inserted into vector pGEX2T (Pharmacia®, Little Chalfont, Bucks, UK) was used for the production of GST-p300 fusion protein. The recombinant proteins were produced in E. coli. His-HIF-1α was purified using Ni-NTA agarose beads, according to manufacture's method (Qiagen®, Crawley, West Sussex, UK). GST-p300 was purified using Glutathione-sepharose beads (Amersham Pharmacia®, Little Chalfont, Bucks, UK) according to manufacturer's instructions. A titration of every batch of p300 was carried out in order to determine the optimum dilution of the protein to obtain at least a 10:1 ratio signal to noise in the binding assay.
The assay was performed in 96-well Polysorb plates (Nalge Nunc International®, Rochester, N.Y., USA) as follows. Plates were coated with His-HIF-1α at 50 ng/well in […] and incubated overnight at 4° C. The plates were then washed 3 times with deionized water and blocked with 100 μL/well 3% BSA in PBS for 3 hours at 4° C. After washing 3 times as before, GST-p300 was added at the appropriate dilution (1:800 in this screening) in binding buffer (50 mM HEPES pH 7.5, 50 mM NaCl, 0.1% BSA, 0.5 mM DTT). The reaction was incubated at room temperature for 1 hour. Plates were washed 3 times and anti-GST Europium-conjugated antibody (from Wallac®, Turku, Finland) was added at 50 ng/well in […]. After 45 minutes incubation, plates were washed 3 times as before. Then, 100 μL/well enhancement solution (from Wallac®, Catalog No. 1244-105) was added and allowed to react for 15 minutes at room temperature. Plates were read on a Victor 2 plate reader (from Wallac®).

The subject of series [2] is VEGF promoter (VEGF-luciferase reporter) in Hepatoma 3B (hep3B) cells. Description: VEGF-luciferase cell-based reporter assay, desferoxamine-induced, Hepatoma 3B (hep3B) cells. Conditions: 15 h, read-out: Secondary Assay VEGF-luciferase IC50. The source says: This cell-based reporter assay involves the use of a luciferase reporter gene under the direct control of the VEGF promoter. Induction of HIF using desferoxamine leads to the transcription of luciferase through activation of the VEGF (Vascular Endothelial Growth Factor) promoter, which in turn leads to an increase in luciferase activity, which can be measured using most commercially available luciferase assay kits. Molecules that disrupt the HIF complex cause inhibition of HIF-dependent luciferase activation and lead to a reduction in luciferase activity. This assay allows the activity of the compounds to be assessed against the VEGF promoter, which is essential for VEGF production and subsequent angiogenesis.
Hepatoma 3B (hep3B) cells (ATCC Ref. No. HB-8064) were plated in 24-well plates at 2×10^4/well in 500 μL DMEM/10% FCS, and were transfected the following day using Fugene 6 (Roche Biochemicals®, Lewes, E. Sussex, UK). Transfection mixtures per well contained 6 μL 10% Fugene, 200 ng VEGF-luciferase reporter (rat VEGF promoter, NCBI GenBank, accession number U22373, Levy et al., 1995) and 2 ng TK-renilla (Promega®, Madison, Wis., USA) (for transfection efficiency control). Transfection was performed as recommended by manufacturer. Compounds were added the following day. After 1 hour incubation at 37° C., desferoxamine (Sigma®, Dorset, UK) was added at 100 μM to induce HIF activity. Duplicate wells without desferoxamine were run in parallel. Cells were harvested 15 hours later, and luciferase activity was measured using Dual Luciferase Assay System (Promega®, see also Technical Manual, Part #TM040, Instructions for Use of Products E1910 and E1960, revised May/1999).
For orientation: A reporter such as luciferase makes a cellular process visible.

Structures are written as SMILES.

T1 sequence (Q16665 437-826 limits assumed): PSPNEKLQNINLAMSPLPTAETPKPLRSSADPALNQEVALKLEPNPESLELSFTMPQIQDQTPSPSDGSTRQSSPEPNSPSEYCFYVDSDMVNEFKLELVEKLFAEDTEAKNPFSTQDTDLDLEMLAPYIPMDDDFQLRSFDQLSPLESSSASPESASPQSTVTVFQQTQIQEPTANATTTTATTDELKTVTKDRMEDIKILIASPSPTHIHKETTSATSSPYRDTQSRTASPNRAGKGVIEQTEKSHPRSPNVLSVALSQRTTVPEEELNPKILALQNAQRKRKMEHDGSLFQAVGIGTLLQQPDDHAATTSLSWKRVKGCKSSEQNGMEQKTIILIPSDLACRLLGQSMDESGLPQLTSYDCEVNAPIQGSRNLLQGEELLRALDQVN
T1 sequence (Q09472 1-595 limits assumed): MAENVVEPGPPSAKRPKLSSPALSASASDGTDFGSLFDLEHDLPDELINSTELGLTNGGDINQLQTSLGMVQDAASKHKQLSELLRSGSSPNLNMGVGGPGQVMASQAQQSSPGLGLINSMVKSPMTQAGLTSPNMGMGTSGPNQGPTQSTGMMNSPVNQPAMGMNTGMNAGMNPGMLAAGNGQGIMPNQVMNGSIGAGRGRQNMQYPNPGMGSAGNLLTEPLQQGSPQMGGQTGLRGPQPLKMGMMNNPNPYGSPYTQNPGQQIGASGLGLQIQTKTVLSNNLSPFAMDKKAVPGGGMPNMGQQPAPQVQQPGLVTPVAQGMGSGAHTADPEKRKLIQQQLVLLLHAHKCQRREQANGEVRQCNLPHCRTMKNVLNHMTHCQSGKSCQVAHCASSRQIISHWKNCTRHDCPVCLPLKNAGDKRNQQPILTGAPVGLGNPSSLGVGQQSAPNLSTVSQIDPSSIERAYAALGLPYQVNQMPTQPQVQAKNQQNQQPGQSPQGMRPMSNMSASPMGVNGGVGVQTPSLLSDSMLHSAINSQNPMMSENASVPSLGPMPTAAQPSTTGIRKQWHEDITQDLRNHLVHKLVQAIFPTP

In general, IC50 refers to the concentration needed to halve the response being measured. On to `CCN(CC)c1ccc(C=C2C(=O)NC(=O)NC2=O)cc1` [P2083675], for which the results for the IC50 (in the series with VEGF; in series [1]; in series [2]) were 75 µM, 35 µM and 50 µM, respectively.

For `O=C1NC(=O)C(=Cc2ccc([N+](=O)[O-])s2)C(=O)N1` [PX074037], the concentration for half-maximal inhibition (IC50) in the series with VEGF amounted to 30 µM; in series [1] it was 100 µM; in series [2] it was 35 µM.

For orientation: melting point means the temperature of the solid-liquid transition. As to `O=C1NC(=S)NC(=O)C1=Cc1ccc([N+](=O)[O-])s1` [PX074038, 5-(5-Nitro-thiophen-2-ylmethylene)-2-thioxo-dihydro-pyrimidine-4,6-dione], the melting point was 285 °C (dec.). In addition, inhibition in series [1] was half-maximal at 20 µM (IC50). Moreover, the 50% inhibitory concentration (IC50) in series [2] worked out at 50 µM.

Take `O=C1NC(=S)NC(=O)C1=Cc1c[nH]c2ccccc12` [PX075276, 5-(1H-Indol-3-ylmethylene)-2-thioxo-dihydro-pyrimidine-4,6-dione]: the IC50 with VEGF worked out at 18.8 µM; in series [1], 30 µM; in series [2], 10.8 µM.

For `O=C1NC(=S)NC(=O)C1=Cc1ccc(-c2cc(C(F)(F)F)cc(C(F)(F)F)c2)o1` [PX075367], the half-inhibitory concentration (IC50) in the series on VEGF came out at 75 µM; in series [1], 45 µM; in series [2] it was 50 µM.

With `Cc1cc(C)c(C=C2C(=O)NC(=S)NC2=O)[nH]1` [PX089624], the IC50 with VEGF worked out at 6.2 µM; in series [1], 45 µM; in series [2] it was 12.5 µM.

Regarding `CN(C)c1ccc(C=C2C(=O)NC(=S)NC2=O)cc1` [PX089631, 5-(4-dimethylamino-benzylidene)-2-thioxo-dihydro-pyrimidine-4,6-dione], the half-inhibitory concentration (IC50) in the series with VEGF was found to be 27.5 µM; in series [1], 25 µM; in series [2] it was 16.3 µM.

As to `CCOc1ccc(Br)cc1C=C1C(=O)NC(=S)NC1=O` [PX089633], the IC50 in series [1] was 70 µM; in series [2], 50 µM.

For `O=C1NC(=S)NC(=O)C1=Cc1cccc2ccccc12` [PX089635, 5-(Naphthalen-1-ylmethylene)-2-thioxo-dihydro-pyrimidine-4,6-dione], the melting point is 280 °C (dec.). This compound returned an IC50 in series [1] of 80 µM.

For the compound `O=C1NC(=S)NC(=O)C1=Cc1ccc[nH]1` [PX089639, 5-(1H-pyrrol-2-ylmethylene)-2-thioxo-dihydro-pyrimidine-4,6-dione], the melting point is 280 °C (dec.). The IC50 in the series with VEGF turned out to be 50 µM. In series [1], this compound showed a half-maximal inhibitory concentration (IC50) of 20 µM. For the same compound, the IC50 in series [2] amounted to 25 µM.

For the compound `CN(CCC#N)c1ccc(C=C2C(=O)NC(=S)NC2=O)cc1` [PX089643], the 50% inhibitory concentration (IC50) turned out to be 100 µM in the series with VEGF, 55 µM in series [1] and 87.5 µM in series [2].

For the compound `O=C1C(=Cc2ccc(Cl)cc2)C(=O)N(c2ccccc2)C(=S)N1c1ccccc1` [PX089645, 5-(4-Chloro-benzylidene)-1,3-diphenyl-2-thioxo-dihydro-pyrimidine-4,6-dione], the half-maximal inhibitory concentration (IC50) stood at 200 µM with VEGF and 80 µM in series [1].

Turning to `O=C1NC(=S)NC(=O)C1=Cc1cc(Br)cs1` [PX089648, 5-(4-Bromo-thiophen-2-ylmethylene)-2-thioxo-dihydro-pyrimidine-4,6-dione], the melting point is 230 °C (dec.). The concentration for half-maximal inhibition (IC50) with VEGF turned out to be 32.5 µM. Besides, in series [1], the midpoint of inhibition, the IC50, lay at 45 µM. Further, the IC50 in series [2] is 30 µM.

Consider `O=C1NC(=S)NC(=O)C1=Cc1ccc(Oc2ccccc2)cc1` [PX106021, 5-(4-Phenoxy-benzylidene)-2-thioxo-dihydro-pyrimidine-4,6-dione], for which the concentration for half-maximal inhibition (IC50) in the series with VEGF is 80 µM; in series [2] it was 100 µM.

For the compound `Cc1cc(C=C2C(=O)NC(=S)NC2=O)c(C)n1-c1ccccc1` [PX106151], the figures for the IC50 (with VEGF; in series [1]; in series [2]) were 75 µM, 160 µM and 40 µM, respectively.

As for `Cc1cc(C)cc(-n2c(C)cc(C=C3C(=O)NC(=S)NC3=O)c2C)c1` [PX106155], the IC50 is 45 µM with VEGF, 10 µM in series [1] and 27.5 µM in series [2].

Regarding `COc1ccc2cccc(/C=C3/C(=O)NC(=S)N(c4ccc(Br)cc4)C3=O)c2c1` [PX106265], the half-maximal inhibitory concentration (IC50) in series [1] is 50 µM; in series [2], 32 µM.

As for `CCN1C(=O)/C(=C/C=C/c2ccco2)C(=O)NC1=S` [PX106281], the concentration for half-maximal inhibition (IC50) with VEGF was determined as 30 µM; in series [1] it was 35 µM; in series [2] it was 28 µM.

In the case of `Cc1ccc(N2C(=O)/C(=C/c3ccoc3)C(=O)NC2=S)cc1` [PX106297], the half-inhibitory concentration (IC50) in series [1] worked out at 32 µM; in series [2], 100 µM.

`O=C1NC(=S)NC(=O)C1=Cc1ccc(-c2cc(Cl)ccc2Cl)o1` [PX106326]: the 50% inhibitory concentration (IC50) in series [1] stood at 40 µM; in series [2] it was 50 µM.

`O=C1NC(=S)NC(=O)C1=Cc1cn(Cc2ccccc2)c2ccccc12` [PX106341]: the IC50 came to 20 µM in the series on VEGF, 49 µM in series [1] and 57.5 µM in series [2].

Consider `O=C1NC(=S)NC(=O)C1=Cc1ccccc1OCc1ccccc1F` [PX106343], for which the concentration for half-maximal inhibition (IC50) in series [1] stood at 49 µM; in series [2], 100 µM.

These data come from patent publication US20030229108A1, “Barbituric acid analogs as therapeutic agents” (priority 2000, published 2003).
